Experiments:
free testosterone = assay: Human clinical trial: free testosterone concentrations in healthy male volunteers; format: in vivo
Text: Key Inclusion Criteria: Male, aged 65 years or above showing no clinically significant abnormalities in routine haematological and biochemical tests and having endocrinology and prostate specific antigen (PSA) results within normal limits. Key Exclusion Criteria: Previous inclusion in a clinical trial using CASODEXTM; concurrent treatment with any drugs with the exception of paracetomol; history or presence of any testicular abnormality; history or presence of gastrointestinal, hepatic or renal disease, or other condition known to interfere with the absorption, distribution, metabolism or excretion of drugs; a clinically significant illness within 2 weeks of trial commencement; definite or suspected personal or family history of significant adverse drug reactions or any hypersensitivity to CASODEXTM or […]; treatment within the previous 3 months with any drugs known to have a well-defined potential for hepatotoxicity or hepatic interaction. Dosage: The CASODEXTM was administered daily at a dose of 150 mg and the […] was administered daily at a dose of 20 mg. All treatments were in tablet form and taken once daily. Daily treatment with CASODEXTM plus […] was for 6 weeks, this period being selected as the minimum time to attain steady-state plasma concentrations for the drugs. Another set of volunteers were administered CASODEXTM alone at a daily dose of 150 mg for 4 weeks. All treatments were in tablet form and taken once daily. Key Assessment: Free testosterone concentrations were measured during the course of the trial.

testosterone = details: cited from earlier work
testosterone, LH = details: cited from earlier work

SMILES: CC(O)(CS(=O)(=O)c1ccc(F)cc1)C(=O)Nc1ccc(C#N)c(C(F)(F)F)c1 (stereo not drawn) [CASODEX™, 4′-cyano-α′,α′,α′-trifluoro-3-(4-fluorophenylsulphonyl)-2-hydroxy-2-methylpropiono-m-toluidide]
- Free testosterone, ratio to Day 1 (free testosterone; Day 29, CASODEX alone 150 mg daily for 4 weeks): 1.58
- Free testosterone concentration, gmean (free testosterone; Day 29, CASODEX alone 150 mg daily for 4 weeks, n=7, pre-dose Day 1 baseline gmean 0.048): 0.076 nmol/L
- Increase in mean free testosterone concentration (free testosterone; by the end of the treatment period (4 weeks), CASODEX alone 150 mg daily): 58%
- Increase in mean free testosterone concentration (testosterone; after 24 weeks of daily 150 mg CASODEX alone, prostate cancer (Verhelst et al 1994)): 57%
- Change of basal level of total testosterone (testosterone; single agent therapy in humans (Blackledge et al 1996)): approximate doubling

SMILES: CC/C(=C(\c1ccccc1)c1ccc(OCCN(C)C)cc1)c1ccccc1 [tamoxifen, (Z)-2-[p-(1,2-diphenylbut-1-enyl)phenoxy]ethyldimethylamine]
- Effect on mean serum testosterone, oestradiol, LH levels, LH pulse frequency and amplitude (testosterone, LH; 13 normal men, tamoxifen for 6 weeks (Spijkstra et al 1988)): An increase
- Effect on serum testosterone levels (testosterone, LH; tamoxifen administration to men (Lewis-Jones et al 1987)): marked elevation
- Effect on testosterone and LH (testosterone, LH; tamoxifen intake in adult men (Comhaire et al 1995)): increase testosterone and LH
- Effect on basal LH, FSH and testosterone levels (testosterone, LH; three months' treatment, normogonadotrophic oligozoospermic men (van Bergeijk et al 1986)): stimulated basal LH, FSH and testosterone levels
